According to publication PMC11299231 (Steroids, 2024):
Read-outs that look alike come from different tables or passages of the source.

Tests used:
M21 = test: Antiproliferative activity assay; format: cell-based, human; details: read-out: IC50 ± SEM, M21
DU145 (AR-) = test: Antiproliferative activity assay; format: cell-based, human; details: for IC50: read-out: IC50 ± SEM, DU145 (AR−)
T84 wt = test: Antiproliferative activity assay; format: cell-based, human; details: for IC50: 48 h, read-out: IC50 ± SEM, T84 wt
HaCaT = test: Antiproliferative activity assay; format: cell-based, human; details: for IC50: 48 h, read-out: IC50 ± SEM, HaCaT
HT-29 = test: Antiproliferative activity assay; format: cell-based, human; details: read-out: IC50 ± SEM, HT-29
PC3 (AR-) = test: Antiproliferative activity assay; format: cell-based, human; details: for IC50: 48 h, read-out: IC50 ± SEM, PC3 (AR−)
CYP3A4 [1] = biological target: T1, CYP3A4 (Homo sapiens, UniProt P08684); details: Soret band blue shift, recombinant CYP3A4
T1 sequence (P08684 whole entry): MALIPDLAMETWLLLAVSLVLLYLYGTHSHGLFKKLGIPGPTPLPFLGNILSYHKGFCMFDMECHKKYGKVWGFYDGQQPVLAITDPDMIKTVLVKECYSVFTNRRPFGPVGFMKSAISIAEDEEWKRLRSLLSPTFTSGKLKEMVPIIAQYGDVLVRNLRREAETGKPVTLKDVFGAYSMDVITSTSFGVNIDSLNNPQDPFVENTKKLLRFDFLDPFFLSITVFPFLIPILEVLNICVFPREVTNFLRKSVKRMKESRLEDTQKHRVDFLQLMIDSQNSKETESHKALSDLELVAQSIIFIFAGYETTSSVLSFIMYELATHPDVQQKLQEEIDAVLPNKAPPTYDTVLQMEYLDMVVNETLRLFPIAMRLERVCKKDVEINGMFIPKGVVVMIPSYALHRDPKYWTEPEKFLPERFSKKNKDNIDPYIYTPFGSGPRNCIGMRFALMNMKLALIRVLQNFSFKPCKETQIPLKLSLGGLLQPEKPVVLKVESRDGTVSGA

MCF7 (ER + ) = test: Antiproliferative activity assay; format: cell-based, human; details: read-out: IC50 ± SEM, MCF7 (ER + )
LNCaP (AR + ) = test: Antiproliferative activity assay; format: cell-based, human; details: read-out: IC50 ± SEM, LNCaP (AR + ); prostate adenocarcinoma cells, 48 h, SRB
CYP3A4 [2] = biological target: T1, CYP3A4; details: read-out: IC50, BFC debenzylation activity of CYP3A4; soluble reconstituted system, 37 °C, BFC substrate
MDA-MB-231 (ER-) = test: Antiproliferative activity assay; format: cell-based, human; details: read-out: IC50 ± SEM, MDA-MB-231 (ER−)
[3] = at the maximum concentration tested (5 μM)
[4] = at the maximal concentration tested (5 μM)
[5] = breast carcinoma cells, 48 h, SRB

CC(O)(CS(=O)(=O)c1ccc(F)cc1)C(=O)Nc1ccc(C#N)c(C(F)(F)F)c1 (centres unmarked) [Bicalutamide, bicalutamide, reference compound]
IC50 (M21; Homo sapiens, M21, 48 h): 49 ± 1 µM
IC50 (DU145 (AR-); Homo sapiens, DU-145, 48 h): 52 ± 1 µM
IC50 (T84 wt; Homo sapiens): 56 ± 2 µM
IC50 (HaCaT; Homo sapiens, HaCaT): 95 ± 5 µM
IC50 (HT-29; Homo sapiens, HT-29, 48 h): 42 ± 2 µM
IC50 (PC3 (AR-); Homo sapiens, PC3/AR): 62 ± 3 µM

C[C@]12CC[C@H]3[C@@H]([C@H](C/C=C/Cn4cc([C@]5(O)CC[C@H]6[C@@H]7CCc8cc(O)ccc8[C@H]7CC[C@@]65C)nn4)CC4=CC(=O)CC[C@@]43C)[C@@H]1CC[C@@H]2O [Compound 1, (E)-17β-hydroxy-7α-{4-[4-(estradiol-17α-yl)-[1,2,3]triazol-1-yl]-but-2-enyl}−4-androsten-3-one]
high-spin shift (CYP3A4 [1]): 23%
IC50 (M21; melanoma cells, 48 h, SRB): 2.3 ± 0.1 µM
antiproliferative effect on DU145 (AR-) cells (DU145 (AR-); [3]): no effect
IC50 (DU145 (AR-); prostate adenocarcinoma cells, 48 h, SRB): > 5 µM
antiproliferative activity on T84 wt cells (T84 wt; [4]): inactive
IC50 (T84 wt; colon adenocarcinoma cells, SRB): > 5 µM
IC50 (MCF7 (ER + ); [5]): 4.9 ± 0.4 µM
antiproliferative activity on HaCaT cells (HaCaT; [4]): inactive
IC50 (HaCaT; normal immortalized human keratinocytes, SRB): > 5 µM
IC50 (HT-29; colon carcinoma cells, 48 h, SRB): 3.5 ± 0.1 µM
IC50 (LNCaP (AR + )): > 5 µM
antiproliferative effect on PC3 (AR-) cells (PC3 (AR-); [3]): no effect
IC50 (PC3 (AR-); prostate adenocarcinoma cells, SRB): > 5 µM
IC50 (CYP3A4 [2]): > 5 µM
IC50 (MDA-MB-231 (ER-); [5]): > 5 µM

CC/C(=C(\c1ccc(O)cc1)c1ccc(OCCN(C)C)cc1)c1ccccc1 [Compound 4-OHT, 4-hydroxytamoxifen, reference compound]
IC50 (M21; Homo sapiens, M21, 48 h): 4.2 ± 0.2 µM
IC50 (DU145 (AR-); Homo sapiens, DU-145, 48 h): 13 ± 1 µM
IC50 (T84 wt; Homo sapiens): 6.9 ± 0.3 µM
IC50 (MCF7 (ER + ); Homo sapiens, MCF7, 48 h): 0.013 ± 0.005 µM
IC50 (HaCaT; Homo sapiens, HaCaT): 10.4 ± 0.6 µM
IC50 (HT-29; Homo sapiens, HT-29, 48 h): 0.9 ± 0.2 µM
IC50 (PC3 (AR-); Homo sapiens, PC3/AR): 13 ± 1 µM
IC50 (MDA-MB-231 (ER-); Homo sapiens, MDA-MB-231, 48 h): 7 ± 1 µM
